According to PubChem BioAssay (NCI):
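In this assay, cells in 96-well plates receive the compound at five concentrations for 48 hours. Endpoints are linearly interpolated between the surrounding concentrations. At the GI50, growth is halved. The concentration for full growth arrest is given as TGI.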

Legend:
Experiment in all cases: DTP human tumour cell line panel, 48 h
[1] = system: RXF 393 renal
[2] = system: KM12 colon
[3] = system: A498 renal
[4] = system: IGROV1 ovarian
[5] = system: K-562 leukemia
[6] = system: SK-MEL-28 melanoma
[7] = system: MCF7 breast
[8] = system: SNB-19 CNS
[9] = system: MOLT-4 leukemia
[10] = system: T-47D breast
[11] = system: OVCAR-4 ovarian
[12] = system: SK-MEL-2 melanoma
[13] = system: UACC-62 melanoma
[14] = system: SF-539 CNS
[15] = system: SNB-75 CNS
[16] = system: SF-268 CNS
[17] = system: HOP-92 NSCLC
[18] = system: RPMI-8226 leukemia
[19] = system: CCRF-CEM leukemia
[20] = system: PC-3 prostate
[21] = system: MALME-3M melanoma
[22] = system: HCT-15 colon
[23] = system: U251 CNS
[24] = system: SF-295 CNS
[25] = system: OVCAR-3 ovarian
[26] = system: A549 NSCLC
[27] = system: NCI/ADR-RES ovarian
[28] = system: HL-60(TB) leukemia
[29] = system: SK-OV-3 ovarian
[30] = system: UACC-257 melanoma
[31] = system: HCT-116 colon
[32] = system: OVCAR-8 ovarian
[33] = system: MDA-MB-231 breast
[34] = system: SW-620 colon
[35] = system: HOP-62 NSCLC
[36] = system: UO-31 renal
[37] = system: OVCAR-5 ovarian
[38] = system: DU-145 prostate
[39] = system: NCI-H522 lung
[40] = system: HT29 colon
[41] = system: M14 melanoma
[42] = system: CAKI-1 renal
[43] = system: 786-0 renal
[44] = system: NCI-H226 lung
[45] = system: HS 578T breast
[46] = system: EKVX NSCLC
[47] = system: BT-549 breast
[48] = system: NCI-H23 lung
[49] = system: COLO 205 colon
[50] = system: SN12C renal
[51] = system: ACHN renal
[52] = system: SK-MEL-5 melanoma
[53] = system: TK-10 renal
[54] = system: LOX IMVI melanoma
[55] = system: NCI-H460 lung
[56] = system: MDA-MB-435

In the case of `O=C1C=C(C2=CC(=O)C(=O)c3ccccc32)c2ccccc2C1=O`, the TGI [1] is reported as over 100 µM, the TGI [2] is reported as 39.8 µM and the TGI [3] is reported as over 100 µM. For the same compound, the TGI [4] was over 100 µM, the TGI [5] was over 100 µM and the TGI [6] was over 100 µM. It also gave a TGI [7] of 48.3 µM, a TGI [8] of 53.2 µM and a TGI [9] of 15.4 µM. The TGI [10] was 56.1 µM, the TGI [11] was over 100 µM and the TGI [12] was 72.3 µM. For the same compound, the TGI [13] was over 100 µM, the TGI [14] was 82.4 µM and the TGI [15] was 60.1 µM. The TGI [16] was 48.3 µM, the TGI [17] was 39.3 µM and the TGI [18] was 46.2 µM. It also gave a TGI [19] of over 100 µM, a TGI [20] of 37.3 µM and a TGI [21] of over 100 µM. It also gave a TGI [22] of over 100 µM, a TGI [23] of over 100 µM and a TGI [24] of 66.5 µM. The TGI [25] was 20.7 µM, the TGI [26] was over 100 µM and the TGI [27] was over 100 µM. For the same compound, the TGI [28] was over 100 µM, the TGI [29] was over 100 µM and the TGI [30] was over 100 µM. It also gave a TGI [31] of 50.1 µM, a TGI [32] of 75.7 µM and a TGI [33] of 53.3 µM. It also gave a TGI [34] of 31.4 µM, a TGI [35] of 64.6 µM and a TGI [36] of over 100 µM. For the same compound, the TGI [37] was 44.2 µM, the TGI [38] was 29.4 µM and the TGI [39] was over 100 µM. The TGI [40] was over 100 µM, the TGI [41] was over 100 µM and the TGI [42] was 47.8 µM. It also gave a TGI [43] of over 100 µM, a TGI [44] of over 100 µM and a TGI [45] of 90.7 µM. For the same compound, the TGI [46] was over 100 µM, the TGI [47] was over 100 µM and the TGI [48] was over 100 µM. For the same compound, the TGI [49] was 38.9 µM, the TGI [50] was over 100 µM and the TGI [51] was over 100 µM. It also gave a TGI [52] of 8.17 µM, a TGI [53] of 75.4 µM and a TGI [54] of over 100 µM.
Compound `Clc1ccc(C2=Nn3c(COc4ccccc4Cl)nnc3SC2)c(Cl)c1` has a GI50 [1] of 28.6 µM, a TGI [1] of over 100 µM and a GI50 [2] of 16.9 µM. The TGI [2] was 34 µM, the GI50 [4] was 33.6 µM and the TGI [4] was over 100 µM. The GI50 [6] was 17 µM, the TGI [6] was 53.9 µM and the GI50 [7] was 11 µM. The TGI [7] was over 100 µM, the GI50 [8] was 30.4 µM and the TGI [8] was over 100 µM. For the same compound, the GI50 [9] was 22.3 µM, the TGI [9] was over 100 µM and the GI50 [10] was 14 µM. It also gave a TGI [10] of 51.5 µM, a GI50 [55] of 24.2 µM and a TGI [55] of over 100 µM. For the same compound, the GI50 [11] was 26.9 µM, the TGI [11] was over 100 µM and the GI50 [12] was 25.1 µM. It also gave a TGI [12] of 57.4 µM, a GI50 [13] of 15.1 µM and a TGI [13] of 35.5 µM. For the same compound, the GI50 [16] was 31.8 µM, the TGI [16] was over 100 µM and the GI50 [17] was 39 µM. For the same compound, the TGI [17] was over 100 µM, the GI50 [18] was 44.7 µM and the TGI [18] was over 100 µM. The GI50 [19] was 30.6 µM, the TGI [19] was over 100 µM and the GI50 [20] was 37.2 µM. For the same compound, the TGI [20] was over 100 µM, the GI50 [21] was 20.3 µM and the TGI [21] was 70.6 µM. The GI50 [22] was 54.6 µM, the TGI [22] was over 100 µM and the GI50 [23] was 14.2 µM. It also gave a TGI [23] of 45.8 µM, a GI50 [56] of 20.1 µM and a TGI [56] of 84.5 µM. It also gave a GI50 [24] of 10.3 µM, a TGI [24] of 87 µM and a GI50 [25] of 12.9 µM. It also gave a TGI [25] of 29.2 µM, a GI50 [26] of 23.6 µM and a TGI [26] of over 100 µM. It also gave a GI50 [27] of over 100 µM, a TGI [27] of over 100 µM and a GI50 [28] of 19.4 µM. For the same compound, the TGI [28] was 75.4 µM, the GI50 [29] was 28.1 µM and the TGI [29] was 86.3 µM. The GI50 [30] was 20.8 µM, the TGI [30] was 60.9 µM and the GI50 [31] was 14.7 µM. It also gave a TGI [31] of 27.9 µM, a GI50 [32] of 29.6 µM and a TGI [32] of over 100 µM. It also gave a GI50 [33] of 18.5 µM, a TGI [33] of 48.6 µM and a GI50 [34] of 18.5 µM. For the same compound, the TGI [34] was over 100 µM, the GI50 [35] was 24.3 µM and the TGI [35] was 65 µM. It also gave a GI50 [36] of 31.2 µM, a TGI [36] of over 100 µM and a GI50 [37] of 35.1 µM. It also gave a TGI [37] of 87.1 µM, a GI50 [38] of 19.8 µM and a TGI [38] of 86.1 µM. For the same compound, the GI50 [39] was 22.6 µM, the TGI [39] was 80.3 µM and the GI50 [40] was 14 µM. For the same compound, the TGI [40] was 27 µM, the GI50 [41] was 16.4 µM and the TGI [41] was 41.4 µM. The GI50 [42] was 25.9 µM, the TGI [42] was 76.7 µM and the GI50 [43] was 25.6 µM. It also gave a TGI [43] of 65.4 µM, a GI50 [44] of 14.6 µM and a TGI [44] of 41.6 µM. For the same compound, the GI50 [45] was 15 µM, the TGI [45] was 69 µM and the GI50 [46] was 23.7 µM. It also gave a TGI [46] of 80.8 µM, a GI50 [47] of 18.8 µM and a TGI [47] of 54.2 µM. It also gave a GI50 [48] of 15.5 µM, a TGI [48] of 39.6 µM and a GI50 [49] of 14.7 µM. For the same compound, the TGI [49] was 33.5 µM, the GI50 [51] was 17.3 µM and the TGI [51] was 51.6 µM. The GI50 [52] was 12.6 µM, the TGI [52] was 28.5 µM and the GI50 [53] was 26.5 µM. The TGI [53] was 95.4 µM, the GI50 [54] was 15.2 µM and the TGI [54] was 28.7 µM.
